1 molecule from patent publication US10172306B2, “Production of ingenol, ingenol esters and/or tiglian-3-one derivatives by euphorbiaceae plant cell suspension cultures” (Phyton Holdings, LLC, priority 2015, dated 2019) can be followed below.

Structures are written as SMILES.

The assay has as its system suspension culture of E. peplus. Briefly: Precursor feeding of E. peplus suspension culture with angelic acid: cell growth. To be noted: 0.5 mM angelic acid added to E. peplus suspension culture, cultivated for 7-14 days; sterile water as negative control. The assay is classed as cell-based, Euphorbia peplus. The procedure: Further increase of Ingenol-3-angelate was achieved using angelic acid as a precursor. A suspension culture of E. peplus, newly transferred or up to 14 days old, was supplemented with 0.5 mM angelic acid. […] The same amount of sterile water was used as a negative control. After addition of angelic acid, the culture was cultivated for 7-14 days (see FIG. 6).

On to `C/C=C(/C)C(=O)O` [angelic acid, 2-methyl-2(Z)-butenoic acid], for which the “influence on cell growth” value is “no influence on cell growth”.
